Structures are written as SMILES.

The record followed here is patent US10633354B2, “Substituted tricyclic heterocyclic compounds” (BRISTOL-MYERS SQUIBB COMPANY, priority 2016, dated 2020).

In series [1] the target is T1, S1P1 (Homo sapiens, UniProt P21453).
T1 construct: expressed in transfected cells; host or cells: CHO cells (S1P1/CHO), membranes
The experiment in a line: Receptor [35S] GTPγS binding assay (S1P1 GTPγS). The conditions noted are these: membranes from S1P1/CHO cells; for S1P1 GTPgS (Ymax): maximal response; for EC50: phosphorylated compounds, read-out: S1P1 GTPgS (EC50). Format: biochemical. As for the experimental part: (§1) The compounds of Formula (I), Formula (II), Formula (III), and Formula (IV), and salts thereof in which R2 is —OH, engage their biological targets (e.g. S1P1) after bioactivation through phosphorylation of the alcohol to provide an active phosphate ester compound of Formula (I), Formula (II), Formula (III), and Formula (IV), or salts thereof, in which R2 is —OP(O)(OH)2. In vitro characterization of biological activity of the examples was conducted on synthetically prepared samples of the phosphorylated compounds.
(§2) Receptor [^35S] GTPyS Binding Assays: (S1P1 GTPyS/S1P3 GTPyS)
(§3) Compounds were loaded in a 384 Falcon v-bottom plate (0.5 μl/well in a 11 point, 3-fold dilution). Membranes prepared from S1Pi/CHO cells or EDG3-Ga15-bla HEK293T cells (EDG3 equivalent S1P3) were added to the compound plate (40 μl/well, final protein 3 μg/well) with MULTIDROP®. [^35S] GTP (1250 Ci/mmol, Perkin Elmer) was diluted in assay buffer: 20 mM HEPES, pH7.5, 10 mM MgCl2, 150 mM NaCl, 1 mM EGTA (ethylene glycol tetraacetic acid), 1 mM DTT (Dithiothreitol), 10 μM GDP, 0.1% fatty acid free BSA, and 10 μg/ml Saponin to 0.4 nM. 40 μl of the [^35S] GTP solution was added to the compound plate with a final concentration of 0.2 nM. The reaction mixture was kept at room temperature for 45 min. At the end of incubation, all the mixtures in the compound plate were transferred to Millipore 384-well FB filter plates via the VELOCITY 11® Vprep liquid handler. The filter plate was washed with water 4 times by using the manifold Embla plate washer and dried at 60° C. for 45 min. MicroScint 20 scintillation fluid (30 μl) was added to each well for counting on the Packard TOPCOUNT®. ECso is defined as the agonist concentration that corresponds to 50% of the Ymax (maximal response) obtained for each individual compound tested.
(§4) A smaller value for GTPyS S1 P1 EC50 value indicated greater activity for the compound in the GTPyS S1P1 binding assay. A larger value for the GTPyS S1 P3 EC50 value indicated less activity in the GTPyS S1 P3 binding assay (Table A).
(GTPγS is a poorly hydrolysed GTP analogue; its binding reports G protein activation.)

Series [2] addresses T2, S1P3 (Homo sapiens, UniProt Q99500).
T2 construct: expressed in transfected cells; host or cells: HEK293T cells (EDG3-Ga15-bla), membranes
The experiment in a line: Receptor [35S] GTPγS binding assay (S1P3 GTPγS). Format: biochemical. Particulars: membranes from EDG3-Ga15-bla HEK293T cells; read-out: S1P3 GTPgS (EC50). The method, then:
as §1, §2, §3, §4

Series [3] in a line: Parent and phosphate concentrations in the BLR assay. Particulars: rat, in vivo, po, Lewis rats dosed orally.
Assay in series [4]: as above
Particulars: rat, in vivo, po, Lewis rats dosed orally. The method, then: (§5) Blood Lymphocyte Reduction (BLR) Assay in Rodent:
Lewis rats were dosed orally with vehicle alone (polyethylene glycol 300, “PEG300”) or with test compounds. Compounds were dosed as a solution or suspension in the vehicle, adjusted to reflect the free amount of test article in the event that salt forms are utilized. Blood was drawn at 24 hr and blood lymphocyte counts were determined on an ADVIA 120 Hematology Analyzer (Siemens Healthcare Diagnostics). The results were measured as a reduction in the percentage of circulating lymphocytes as compared to the vehicle treated group at the time of measurement. The results represent the average results of all animals within each treatment group (n=2).
This is another data set of the same source.

In series [5] the test system is circulating lymphocytes. The experiment in a line: Blood Lymphocyte Reduction (BLR) assay in rodent. The class given is in vivo. The conditions noted are these: Lewis rats dosed orally; for BL (×10^3/mm^3): n=2; for Lymp. Red.: vs vehicle group. The method, then:
as §5
Lewis rats were dosed orally with vehicle alone (polyethylene glycol 300, “PEG300”) or with test compounds. Compounds were dosed as a solution or suspension in the vehicle, adjusted to reflect the free amount of test article in the event that salt forms are utilized. […] The results were measured as a reduction in the percentage of circulating lymphocytes as compared to the vehicle treated group at the time of measurement. The results represent the average results of all animals within each treatment group (n=2).

T1 sequence (P21453 whole entry): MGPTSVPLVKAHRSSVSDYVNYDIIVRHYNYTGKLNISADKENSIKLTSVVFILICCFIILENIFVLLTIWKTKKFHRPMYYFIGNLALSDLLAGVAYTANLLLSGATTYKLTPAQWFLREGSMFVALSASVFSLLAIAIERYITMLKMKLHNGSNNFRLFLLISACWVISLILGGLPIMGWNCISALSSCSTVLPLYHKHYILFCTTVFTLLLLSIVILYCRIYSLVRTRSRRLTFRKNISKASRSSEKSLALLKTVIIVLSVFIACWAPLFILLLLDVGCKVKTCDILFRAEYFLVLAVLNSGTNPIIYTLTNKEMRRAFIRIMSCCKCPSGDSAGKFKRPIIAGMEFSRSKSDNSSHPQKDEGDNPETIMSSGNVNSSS
T2 sequence (Q99500 whole entry): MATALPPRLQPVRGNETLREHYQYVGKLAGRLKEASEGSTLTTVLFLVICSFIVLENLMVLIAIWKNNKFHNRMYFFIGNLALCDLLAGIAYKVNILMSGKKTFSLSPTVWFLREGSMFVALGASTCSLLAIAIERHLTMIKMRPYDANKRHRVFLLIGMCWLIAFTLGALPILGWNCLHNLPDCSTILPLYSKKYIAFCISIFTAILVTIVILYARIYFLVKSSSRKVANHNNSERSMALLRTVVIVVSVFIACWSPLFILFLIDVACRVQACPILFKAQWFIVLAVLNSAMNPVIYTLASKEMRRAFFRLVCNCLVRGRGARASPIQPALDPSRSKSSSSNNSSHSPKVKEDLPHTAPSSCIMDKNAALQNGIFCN

Regarding `CCCCCCOc1nc2c(s1)-c1ccc([C@H]3CC[C@](N)(COP(=O)(O)O)C3)cc1CC2` [Example 30, ((1R,3S)-1-amino-3-(2-(hexyloxy)-4,5-dihydronaphtho[2,1-d]thiazol-7-yl)cyclopentyl) methyl dihydrogen phosphate], in series [1], the “S1P1 GTPgS (Ymax)” value was 102% and the EC50 was 12 nM. Besides, in series [2], the 50% effective concentration (EC50) was > 3000 nM.
On to `CCCCSc1nc2c(s1)-c1ccc([C@H]3CC[C@](N)(COP(=O)(O)O)C3)cc1CC2` [Example 31, ((1R,3S)-1-amino-3-(2-(butylthio)-4,5-dihydronaphtho[2,1-d]thiazol-7-yl)cyclopentyl)methyl dihydrogen phosphate], for which, in series [1], the “S1P1 GTPgS (Ymax)” value is on record as 58% and the half-maximal effective concentration (EC50) was determined as 20 nM. Also, the EC50 in series [2] was > 3000 nM.
`CCCCNc1nc2c(s1)-c1ccc([C@H]3CC[C@](N)(COP(=O)(O)O)C3)cc1CC2` [Example 32, ((1R,3S)-1-amino-3-(2-(butylamino)-4,5-dihydronaphtho[2,1-d]thiazol-7-yl)cyclopentyl)methyl dihydrogen phosphate]: the “S1P1 GTPgS (Ymax)” value in series [1] is reported as 49%. The EC50 in series [1] is 133 nM; in series [2] it was > 3000 nM.
The matching figures for `CCCCOCCOc1nc2c(s1)-c1ccc([C@H]3CC[C@](N)(COP(=O)(O)O)C3)cc1CC2` [Example 26, ((1R,3S)-1-amino-3-(2-(2-butoxyethoxy)-4,5-dihydronaphtho[2,1-d]thiazol-7-yl)cyclopentyl)methyl Dihydrogen Phosphate]: 107%, 1 nM and 190 nM.
As for `CCCCN(C)c1nc2c(s1)-c1ccc([C@H]3CC[C@](N)(CO)C3)cc1CC2` [Example 18, ((1R,3S)-1-amino-3-(2-(butyl(methyl)amino)-4,5-dihydronaphtho[2,1-d]thiazol-7-yl)cyclopentyl)methanol], the concentration at 4 h in series [3] was determined as 113 nM. Besides, the concentration at 24 h in series [4] worked out at 18 nM. Besides, in series [5] (4 Hours), the “BL (×10^3/mm^3)” value was 5.9 ×10^3/mm^3 and the “Lymp. Red.” value worked out at 30%. In addition, in series [5] (24 Hours), the “BL (×10^3/mm^3)” value is recorded as 6.4 ×10^3/mm^3 and the “Lymp. Red.” value is 27%.
For the molecule `CCCCCCCc1nc2c(s1)-c1ccc([C@H]3CC[C@](N)(CO)C3)cc1CC2` [Example 1, ((1R,3S)-1-amino-3-(2-heptyl-4,5-dihydronaphtho[2,1-d]thiazol-7-yl)cyclopentyl) methanol], in series [3], the concentration at 4 h was 66 nM. Moreover, in series [4], the concentration at 24 h worked out at 111 nM. Besides, in series [5] (4 Hours), the “BL (×10^3/mm^3)” value is 5.7 ×10^3/mm^3 and the “Lymp. Red.” value amounted to 40%. Also, in series [5] (24 Hours), the “BL (×10^3/mm^3)” value is on record as 1.8 ×10^3/mm^3 and the “Lymp. Red.” value is on record as 77%.
In the case of `Cc1ccc(-c2nc3c(s2)-c2ccc([C@H]4CC[C@](N)(CO)C4)cc2CC3)cc1` [Example 19, ((1R,3S)-1-amino-3-(2-(p-tolyl)-4,5-dihydronaphtho[2,1-d]thiazol-7-yl)cyclopentyl)methanol], the concentration at 4 h in series [3] worked out at 48 nM. Also, in series [4], the concentration at 24 h came out at 37 nM. Moreover, in series [5] (4 Hours), the “BL (×10^3/mm^3)” value is 7.5 ×10^3/mm^3 and the “Lymp. Red.” value amounted to 9%. Moreover, in series [5] (24 Hours), the “BL (×10^3/mm^3)” value is given as 8.2 ×10^3/mm^3 and the “Lymp. Red.” value is reported as 2%.
For `CCCCOCCOc1nc2c(s1)-c1ccc([C@H]3CC[C@](N)(CO)C3)cc1CC2` [Example 7, ((1R,3S)-1-amino-3-(2-(2-butoxyethoxy)-4,5-dihydronaphtho[2,1-d]thiazol-7-yl)cyclopentyl)methanol], the concentration at 4 h in series [3] stood at 1 nM. Also, the concentration at 24 h in series [4] stood at 142 nM. Further, in series [5] (4 Hours), the “BL (×10^3/mm^3)” value is on record as 1.9 ×10^3/mm^3 and the “Lymp. Red.” value is listed as 79%. For the same molecule, in series [5] (24 Hours), the “BL (×10^3/mm^3)” value was 1.2 ×10^3/mm^3 and the “Lymp. Red.” value is on record as 87%.
With `CCCCOc1nc2ccc3cc([C@H]4CC[C@](N)(CO)C4)ccc3c2s1` [Example 16, ((1R,3S)-1-amino-3-(2-butoxynaphtho[2,1-d]thiazol-7-yl)cyclopentyl)methanol], the concentration at 4 h in series [3] came to 28 nM. Further, the concentration at 24 h in series [4] is 21 nM. Also, the “BL (×10^3/mm^3)” value is listed as 2.9 ×10^3/mm^3 in series [5] (4 Hours) and 1.9 ×10^3/mm^3 in series [5] (24 Hours). The “Lymp. Red.” value in series [5] (4 Hours) is given as 65%; in series [5] (24 Hours), 77%.
Consider `CCCCCOc1nc2ccc3cc([C@H]4CC[C@](N)(CO)C4)ccc3c2s1` [Example 15, ((1R,3S)-1-amino-3-(2-(pentyloxy)naphtho[2,1-d]thiazol-7-yl)cyclopentyl)methanol], for which the concentration at 4 h in series [3] was determined as 31 nM. The concentration at 24 h in series [4] is 17 nM. Moreover, in series [5] (4 Hours), the “BL (×10^3/mm^3)” value is recorded as 1.7 ×10^3/mm^3 and the “Lymp. Red.” value amounted to 80%. Besides, in series [5] (24 Hours), the “BL (×10^3/mm^3)” value is 1.8 ×10^3/mm^3 and the “Lymp. Red.” value came to 80%.
Consider `CCCCCCOc1nc2c(s1)-c1ccc([C@H]3CC[C@](N)(CO)C3)cc1CC2` [Example 9, ((1R,3S)-1-amino-3-(2-(hexyloxy)-4,5-dihydronaphtho[2,1-d]thiazol-7-yl)cyclopentyl) methanol], for which the concentration at 4 h in series [3] worked out at 72 nM. Also, in series [4], the concentration at 24 h was 31 nM. Besides, in series [5] (4 Hours), the “BL (×10^3/mm^3)” value was 2.8 ×10^3/mm^3 and the “Lymp. Red.” value was determined as 66%. Further, in series [5] (24 Hours), the “BL (×10^3/mm^3)” value is reported as 1.4 ×10^3/mm^3 and the “Lymp. Red.” value was 82%.
With `CCCCNc1nc2c(s1)-c1ccc([C@H]3CC[C@](N)(CO)C3)cc1CC2` [Example 17, ((1R,3S)-1-amino-3-(2-(butylamino)-4,5-dihydronaphtho[2,1-d]thiazol-7-yl)cyclopentyl)methanol], the concentration at 4 h in series [3] came to 33 nM. For the same molecule, in series [4], the concentration at 24 h worked out at 0 nM. In series [5] (4 Hours), the “BL (×10^3/mm^3)” value is listed as 5.8 ×10^3/mm^3 and the “Lymp. Red.” value is reported as 37%. Besides, in series [5] (24 Hours), the “BL (×10^3/mm^3)” value is on record as 8.4 ×10^3/mm^3 and the “Lymp. Red.” value turned out to be 0%.
`CCCCCOc1nc2c(s1)-c1ccc([C@H]3CC[C@](N)(CO)C3)cc1CC2` [Example 12, ((1R,3S)-1-amino-3-(2-(pentyloxy)-4,5-dihydronaphtho[2,1-d]thiazol-7-yl)cyclopentyl)methanol]: in series [3], the concentration at 4 h stood at 81 nM. For the same molecule, the concentration at 24 h in series [4] is 29 nM. Also, the “BL (×10^3/mm^3)” value is on record as 2.8 ×10^3/mm^3 in series [5] (4 Hours) and 1.8 ×10^3/mm^3 in series [5] (24 Hours). The “Lymp. Red.” value stood at 67% in series [5] (4 Hours) and 80% in series [5] (24 Hours).
For `CCCCSc1nc2ccc3cc([C@H]4CC[C@](N)(CO)C4)ccc3c2s1` [Example 14, ((1R,3S)-1-amino-3-(2-(butylthio)naphtho[2,1-d]thiazol-7-yl)cyclopentyl)methanol], in series [3], the concentration at 4 h is 15 nM. The concentration at 24 h in series [4] was 8 nM. For the same molecule, the “BL (×10^3/mm^3)” value is reported as 2.6 ×10^3/mm^3 in series [5] (4 Hours) and 2.1 ×10^3/mm^3 in series [5] (24 Hours). In addition, the “Lymp. Red.” value worked out at 69% in series [5] (4 Hours) and 75% in series [5] (24 Hours).
`CCCCCSc1nc2c(s1)-c1ccc([C@H]3CC[C@](N)(CO)C3)cc1CC2` [Example 11, ((1R,3S)-1-amino-3-(2-(pentylthio)-4,5-dihydronaphtho[2,1-d]thiazol-7-yl)cyclopentyl) methanol]: in series [3], the concentration at 4 h was found to be 87 nM. In addition, the concentration at 24 h in series [4] turned out to be 16 nM. Moreover, in series [5] (4 Hours), the “BL (×10^3/mm^3)” value is given as 2.3 ×10^3/mm^3 and the “Lymp. Red.” value came out at 72%. Moreover, in series [5] (24 Hours), the “BL (×10^3/mm^3)” value was 2.1 ×10^3/mm^3 and the “Lymp. Red.” value stood at 76%.

In general, EC50 refers to the concentration at which the effect is half-maximal.
